Test results: patent publication US20140087944A1, “COMPOSITIONS AND METHODS FOR ENHANCING PLANT GROWTH” (NOVOZYMES BIOAG A/S, priority 2012, published 2014)

What was measured:
Type in all cases: in vivo
soybean [1] = assay: Soybean pod yield in greenhouse, gluconolactone with isoflavonoids (Example 8); settings: for soybean pod yield, Fresh Weight: gluconolactone 1 mg/L, pods harvested after 6 weeks; for yield increase over Cue®: gluconolactone added with Cue®
Method: Cue® is a genistein/daidzein isoflavonoid product available from Novozymes Biologicals, Inc. Cue® is used as a soybean seed treatment and the effect of gluconolactone in combination with flavonoids was evaluated to see if soybean production could be enhanced. Gluconolactone was prepared with Cue®. Daidzein, another isoflavonoid, was similarly prepared with gluconolactone with daidzein having the same isoflavonoid concentration as Cue®.
About 100 g soybean seeds were treated with 1 mg/L treatment solutions of gluconolactone and 200 μl of CruiserMaxx® Beans (Syngenta) fungicide+170 μl distilled water+30 μl Cue® or daidzein. For control, a total of 200 μl water was used with 200 μl CruiserMaxx® Bean fungicide. One day after seed treatments, seeds were planted in greenhouse in 1 gallon plastic pots containing soilless mix Fafard 3B. There were 3 plants/pot and 4 pots/treatment. Soybean plants were occasionally fertilized with 20-15-20 NPK fertilizer. Pods were harvested after 6 weeks. Average pod fresh weights were analyzed by student-t test using JUMP statistical software.

corn seedlings = assay: Growth of seedlings in water-agar medium in test tube (Example 3), corn
Method: (§1) The effect of gluconolactone on growth of seedlings of various crops was examined. Corn, green lentil and yellow pea seeds (100 g) were treated with 1.0 mg/L gluconolactone and control seeds were treated with distilled water according to the protocols of Example 1. After treatments, seeds were allowed to dry overnight. One day after treatment, seeds were placed in 25×150 mm glass test tubes containing 40 ml of 5% water-agar solidified medium. Seeds were placed on the surface of medium in each test tube. Test tubes were then placed in a rack and kept in the lab under diffuse light. As the treated seeds were not sterilized, sterilization of the agar medium was not maintained and the test tubes were kept uncapped. Because of the agar medium being without any sugar, the occurrence of contamination was minimal for up to 10 days. The number of seeds per treatment was 10.

green lentil seedlings = assay: Growth of seedlings in water-agar medium in test tube (Example 3), lentil
Method: as §1

lentil seedlings = assay: Stress tolerance of lentil seedlings at 8° C., root growth parameters (Example 11); settings: seven days after plating, 1.0 mg/L gluconolactone, 100 mg/L glutathione, 100 mg/L PADG
Method: The effect of antioxidants on stress tolerance by lentil seedlings at 8° C. was evaluated. Lentil seeds treated with the treatment solutions at 5 ml/kg of seed. […] Treated seeds were plated in large Petri plates on germination paper moistened with deionized water. Plates were incubated at 8° C. in a walk in cold room. Seven days after plating, seedling roots were measured for various growth parameters.

soybean [2] = assay: Performance of rhizobial inoculants for soybean seeds, pod yield (Example 10)
Method: The effect of gluconolactone on the performance of rhizobial inoculants for soybean seeds was evaluated to see if soybean production could be enhanced. 1 mg/L of gluconolactone was added to rhizobial inoculants products Cell-Tech® and Optimize-400® (both from Novozymes Biologicals Inc.). Seed treatments were performed following the instruction cited in the product labels. The total liquid dose going onto soybean seeds was maintained the same when gluconolactone was added. Control seeds were treated with water. About 100 g seed was treated in a clear plastic bag (25 cm×25 cm) with treatment solutions. Seeds were planted 2 hours after treatment in […] containing Fafard soilless mix in greenhouse. 3 plants were allowed to grow per pot and there were 5 pots per treatment. Pods were harvested 6 weeks after planting.

corn seedling = assay: Corn seedling root growth after seed treatment, Petri plate germination, WinRhizo root scanner (Examples 1 and 2)
Method: An experiment was performed to determine the effect of gluconolactone on corn seedling root growth parameters. Unsterilized corn seeds (Peterson Hybrid corn 98L90GTCBLL pre-treated with fungicide Acceleron) were treated with water (control) and gluconolactone solutions (1 and 10 mg/L distilled water). In a clear plastic bag (25 cm×25 cm), 100 gram seeds were treated with 500 μl water (for control). Gluconolactone treatments of 1 and 10 mg/L included 250 μl water+250 μl gluconolactone solution with vigorous shaking. Four hours after treatment, 10 seeds were plated in 150 mm×15 mm polystyrene Petri plates (Fisherband) on 5⅜″ germination paper circle (Anchor Paper Co., Saint Paul, Mn) and moistened with 12 ml distilled water. Four Petri plates were prepared per treatment as 4 replicates. Petri plates were then placed in the dark in under-counter cabinets in the lab at 24° C. for 7 days. After 7 days, seedlings were removed from the cabinets, exposed to light, and their main roots severed and measured for various root parameters with WinRhizo root scanner (Regent Instruments Inc., WinRhizo Pro 2007). For all statistical analysis, student t-test was applied using JMPv.9 statistical software.
An experiment was designed to evaluate if any gluconolactone concentration between 1.0-10 mg/L and below 1.0 mg/L has an optimum effect on influencing seedling root growth. Example 2 was conducted according to the protocols of Example 1. Accordingly, gluconolactone concentrations of 5.0 mg/L, 1.0 mg/L, and 0.5 mg/L, were evaluated.

yellow pea seedlings = assay: Growth of seedlings in water-agar medium in test tube (Example 3), pea
Method: as §1

[3] = gluconolactone 1 mg/L seed treatment, harvested 10 days after planting
[4] = gluconolactone 1 mg/L, non-significantly
[5] = Example 1, GL 1 mg/L seed treatment, main root, 7 days
[6] = Example 1, GL 1 mg/L seed treatment, main root, 7 days, listed as GL
[7] = Example 1, GL 10 mg/L seed treatment, main root, 7 days
[8] = Example 1, GL 10 mg/L seed treatment, main root, 7 days, listed as GL
[9] = Example 2, GL 0.5 mg/L seed treatment
[10] = Example 2, GL 1.0 mg/L seed treatment
[11] = Example 2, GL 5.0 mg/L seed treatment

Structure (SMILES): O=c1c(-c2ccc(O)cc2)coc2cc(O)ccc12 [Daidzein, reference compound]
- soybean pod yield, Fresh Weight (soybean [1]; 1st trial): 36.782 g
- soybean pod yield, Fresh Weight (soybean [1]; 2nd trial): 36.4 g
- soybean pod yield, Fresh Weight (soybean [1]; 3rd trial): 32.482 g

Structure (SMILES): O=C1O[C@H](CO)[C@@H](O)[C@H](O)[C@H]1O [Gluconolactone, gluconolactone]
- Seedling dry weight (corn seedlings; [3]): 0.606a g
- average plant dry biomass higher (than control) (corn seedlings; [4]): 6.3%
- Seedling dry weight (green lentil seedlings; [3]): 0.083a* g
- average plant dry biomass higher (than control) (green lentil seedlings; gluconolactone 1 mg/L, significantly): 38.3%
- No. of lateral roots (lentil seedlings): 2.935 ab
- Seedling Root Length (lentil seedlings): 2.895 a cm
- Surface area (lentil seedlings): 0.9457 a cm^2
- Volume (lentil seedlings): 0.02474 a cm^3
- No. of lateral roots (lentil seedlings; listed as gluconolactone): significantly increased
- Seedling Root Length (lentil seedlings; listed as gluconolactone): significantly increased
- Surface area (lentil seedlings; listed as gluconolactone): significantly increased
- Volume (lentil seedlings; listed as gluconolactone): significantly increased
- % increase (dry pod yield) (soybean [2]; 1 mg/L gluconolactone added to Cell-Tech, over Cell-Tech alone): 3.36%
- % increase (dry pod yield) (soybean [2]; 1 mg/L gluconolactone added to Optimize-400, over Optimize-400 alone): 4.84%
- yield increase over Cue® (soybean [1]; 1st trial): 6%
- yield increase over Cue® (soybean [1]; 2nd trial): 9.7%
- yield increase over Cue® (soybean [1]; 3rd trial): 0.6%
- yield increase (over daidzein alone) (soybean [1]; gluconolactone added with daidzein, in 2 out of 3 trials): approximately 2.5%
- Diameter (corn seedling; [5]): 0.940a mm
- Surface area (corn seedling; [5]): significantly higher than control
- Volume (corn seedling; [5]): significantly higher than control
- Length (corn seedling; Example 1, GL 1 mg/L seed treatment, main root, 7 days in dark at 24° C.): significantly higher than control
- Length (corn seedling; Example 1, GL 1 mg/L seed treatment, main root, 7 days in dark at 24° C., listed as GL): 7.108a cm
- Surface area (corn seedling; [6]): 2.128a cm^2
- Volume (corn seedling; [6]): 0.051a cm^3
- Diameter (corn seedling; [7]): did not show any difference
- Length (corn seedling; [7]): did not show any difference
- Surface area (corn seedling; [7]): did not show any difference
- Volume (corn seedling; [7]): did not show any difference
- Length (corn seedling; [8]): 6.282ab cm
- Surface area (corn seedling; [8]): 1.748ab cm^2
- Volume (corn seedling; [8]): 0.039ab cm^3
- Diam (corn seedling; [9]): 1.190a mm
- Length (corn seedling; [9]): 6.778ab cm
- Root Volume (corn seedling; [9]): 0.076a cm3
- Diam (corn seedling; [10]): 1.116b mm
- Length (corn seedling; [10]): optimum dose
- Root Volume (corn seedling; [10]): 0.070ab cm3
- Length (corn seedling; Example 2, GL 1.0 mg/L seed treatment, listed as GL): 7.048a cm
- Diam (corn seedling; [11]): 1.149ab mm
- Length (corn seedling; [11]): least effective
- Root Volume (corn seedling; [11]): 0.063b cm3
- Length (corn seedling; Example 2, GL 5.0 mg/L seed treatment, listed as GL): 6.054b cm
- Seedling dry weight (yellow pea seedlings; [3]): 0.483a g
- average plant dry biomass higher (than control) (yellow pea seedlings; [4]): 5.0%
